Results from article PMC9026286, “Bacterial Lipodepsipeptides and Some of Their Derivatives and Cyclic Dipeptides as Potential Agents for Biocontrol of Pathogenic Bacteria and Fungi of Agrarian Plants” (Journal of Agricultural and Food Chemistry, 2022).
In brackets after ≈: the same amount, converted by molar mass. Where a SMILES comes first, the peptide text is derived from it. Bridges are numbered along the chain shown (N, C = ends). [ ]: non-standard residue; d: D form. The star is where a group is joined. ξ: configuration not given here. d(aThr) = C[C@@H](O)[C@@H](N)C(=O)O; Octanoyl(3-OH) = CCCCCC(O)CC(=O)*; X1 = CCCCCC(CC(=O)*)OC(C)=O; dDab = NCC[C@@H](N)C(=O)O; hSer = N[C@@H](CCO)C(=O)O; ξQ = NC(=O)CCC(N)C(=O)O; Dhb = C/C=C(\N)C(=O)O; ξL = CC(C)CC(N)C(=O)O; ξDab = NCCC(N)C(=O)O; ξK = NCCCCC(N)C(=O)O; ξT = CC(O)C(N)C(=O)O; ξV = CC(C)C(N)C(=O)O; ξAbu = CCC(N)C(=O)O; ξP = O=C(O)C1CCCN1; ξS = NC(CO)C(=O)O

How the values were obtained:
[1] = test system: Colletotrichum truncatum 17-5-5; details: strain 17-5-5; lipodepsipeptides, serial dilutions from 0.1 to 1 μg/mL, potato dextrose broth, 24-well plates, 28 °C, 7 days; lowest concentration with no visible growth; triplicate
Description: The antifungal activity was performed in 24-well culture plates according to the method previously described[31] with some modification. Serial dilutions of different lipodepsipeptides (from 0.1 to 1 μg/mL) and cyclic dipeptides (from 10 to 1000 μg/mL) were dissolved in a volume of 500 μL of ultrapure Milli-Q and finally inoculated with 500 μL of 2× potato dextrose broth (Difco) containing the Colletotrichum truncatum plug of 4 mm × 4 mm diameter. As a control, C. truncatum plugs (4 mm × 4 mm) were grown in 2× PD broth diluted with 500 μL of ultrapure Milli-Q water, and the plates were incubated at 28 °C for 7 days. The MIC was measured as the lowest concentration of antifungal agent at which there was no visible growth of the fungus after incubation. The experiment was performed in triplicate.

[2] = test system: all the bacteria and the fungus tested; assay: Antimicrobial and antifungal tests, MIC ranges summarised over the panel; assay type: cell-based; details: for reduction of activity with respect to that of 9: compared with compound 9
Description: (§1) The experiment was performed in triplicate.
as §1

Rhodococcus fascians LMG = details: cited from earlier work
Bacillus subtilis PY79 = details: PY79, 48 h
Description: (§2) Bacteria were grown in LB broth at 25 or 37 °C overnight at 150 rpm. A total of 500 μL of a suspension containing about 10^8 cfu mL^–1 were added to 3 mL of LB soft agar (0.7%) and poured onto plates containing 7 mL of LB broth with agar 1.8%. After agar gelification, 10 μL drops of serial dilutions of different lipodepsipeptides and their derivatives (from 0.1 to 1 μg/mL) and cyclic dipeptides (from 10 to 1000 μg/mL) were tested. After 24 ± 48 h of incubation at 25 or 37 °C, the end serial dilution inhibiting the growth of the bacteria in the area of application of 10 μL solutions was recorded. The plates containing the bacteria alone were used as a control. The experiment was performed in triplicate.

Bacillus megaterium QMB = details: 48 h
Description: as §2

Phytophthora infestans = details: cited from earlier work
Plasmopara viticola = details: cited from earlier work
[3] = lipodepsipeptides and derivatives, range over all the bacteria and the fungus tested (summary of Table 1)
[4] = 2,5-diketopiperazines, range over all microorganisms tested (summary of Table 2)

C/C=C(\NC(=O)[C@H](NC(=O)[C@H](CC(C)C)NC(=O)[C@@H](CCC(N)=O)NC(=O)[C@@H](NC(=O)[C@H](NC(=O)[C@@H](CC(C)C)NC(=O)[C@@H](CO)NC(=O)[C@H](NC(=O)[C@@H](CC(C)C)NC(=O)[C@@H](CO)NC(=O)[C@H]1CCCN1C(=O)/C(=C/C)NC(=O)CC(O)CCCCC)C(C)C)C(C)C)C(C)C)C(C)C)C(=O)N[C@H]1C(=O)N[C@@H]([C@@H](C)CC)C(=O)N[C@@H](CCO)C(=O)N[C@H](CCN)C(=O)N[C@@H](CCCCN)C(=O)O[C@@H]1C (stereo partly drawn) [compound 1, tolaasin I] ({Octanoyl(3-OH)}-[Dhb][dP][dS][dL][dV][dS][dL][dV]V[dQ]L[dV][Dhb][d(aThr)]I[hSer][dDab]K; ester 14-C)
MIC [1]: 0.6 µg/mL (≈ 0.302 µM)

C/C=C(\NC(=O)[C@H](NC(=O)[C@H](CC(C)C)NC(=O)[C@@H](CCC(N)=O)NC(=O)[C@@H](NC(=O)[C@H](NC(=O)[C@@H](CC(C)C)NC(=O)[C@@H](COC(C)=O)NC(=O)[C@H](NC(=O)[C@@H](CC(C)C)NC(=O)[C@@H](COC(C)=O)NC(=O)[C@H]1CCCN1C(=O)/C(=C/C)NC(=O)CC(CCCCC)OC(C)=O)C(C)C)C(C)C)C(C)C)C(C)C)C(=O)N[C@H]1C(=O)N[C@@H]([C@@H](C)CC)C(=O)N[C@@H](CCOC(C)=O)C(=O)N[C@H](CCNC(C)=O)C(=O)N[C@@H](CCCCNC(C)=O)C(=O)O[C@@H]1C (stereo partly drawn) [compound 15, hexacetyl tolaasin I] (X1-[Dhb][dP][dS](Ac)[dL][dV][dS](Ac)[dL][dV]V[dQ]L[dV][Dhb][d(aThr)]I[hSer](Ac)[dDab](Ac)K(Ac); ester 14-C)
MIC [1]: 1 µg/mL (≈ 0.446 µM)
MIC range ([2]; lipodepsipeptides and derivatives, range against the pathogenic bacteria and C. truncatum only): 0.7 to 1 µg/mL
MIC range [2, 3]: 0.7 to 1 µg/mL

O=C1N[C@@H](Cc2ccc(O)cc2)C(=O)N2CCC[C@H]12 [compound 14, cyclo(D-Pro-L-Tyr)]
reduction of activity with respect to that of 9 ([2]; 2,5-diketopiperazines): 50–60 times

cyclo(L-Pro-L-Val) [compound 11]
toxicity against Rhodococcus fascians (Rhodococcus fascians LMG): toxicity similar to that of chloramphenicol
MIC range [2, 4]: not toxic

CC(C)C[C@@H]1NC(=O)[C@@H]2CCCN2C1=O [compound 13, cyclo(L-Pro-L-Leu)]
reduction of activity with respect to that of 9 ([2]; 2,5-diketopiperazines): 40–50 times
MIC (Bacillus subtilis PY79): 15 µg/mL (≈ 71.3 µM)
MIC (Bacillus megaterium QMB): 30 µg/mL (≈ 143 µM)

C/C=C(\NC(=O)C(NC(=O)C(CC(C)C)NC(=O)C(CCC(N)=O)NC(=O)C(NC(=O)C(NC(=O)C(CC(C)C)NC(=O)C(CO)NC(=O)C(NC(=O)C(CC(C)C)NC(=O)C(CO)NC(=O)C1CCCN1C(=O)/C(=C/C)NC(=O)CC(O)CCCCC)C(C)C)C(C)C)C(C)C)C(C)C)C(=O)NC1C(=O)N[C@@H](CC(C)C)C(=O)N[C@@H](CCO)C(=O)NC(CCN)C(=O)NC(CCCCN)C(=O)OC1C (stereo partly drawn) [compound 7, tolaasin D] ({Octanoyl(3-OH)}-[Dhb][ξP][ξS][ξL][ξV][ξS][ξL][ξV][ξV][ξQ][ξL][ξV][Dhb][ξT]L[hSer][ξDab][ξK]; ester 14-C)
MIC [1]: 0.2 µg/mL (≈ 0.101 µM)
MIC range [2, 3]: 0.1 to 0.2 µg/mL

O=C1N[C@@H](Cc2ccc(O)cc2)C(=O)N2CCC[C@@H]12 [compound 9, cyclo(L-Pro-L-Tyr)]
antifungal activity against Phytophthora infestans (Phytophthora infestans): showed antifungal activity
antifungal activity against Plasmopara viticola (Plasmopara viticola): showed antifungal activity
MIC range [2, 4]: 15 to 20 µg/mL

WLIP methyl ester [WILP methyl ester]
MIC [1]: 5 µg/mL

CCCCCC(O)CC(=O)NC(CC)C(=O)N1CCC[C@@H]1C(=O)N[C@H](CO)C(=O)N[C@H](CC(C)C)C(=O)N[C@@H](C(=O)N[C@H](CO)C(=O)N[C@H](CC(C)C)C(=O)N[C@@H](C(=O)N[C@H](C(=O)N[C@H](CCC(N)=O)C(=O)N[C@@H](CC(C)C)C(=O)N[C@@H](C(=O)NC(CC)C(=O)N[C@H]1C(=O)N[C@@H]([C@@H](C)CC)C(=O)N[C@@H](CCO)C(=O)N[C@H](CCN)C(=O)N[C@@H](CCCCN)C(=O)O[C@@H]1C)C(C)C)C(C)C)C(C)C)C(C)C (stereo partly drawn) [compound 16, tetrahydro tolaasin I] ({Octanoyl(3-OH)}-[ξAbu][dP][dS][dL][dV][dS][dL][dV]V[dQ]L[dV][ξAbu][d(aThr)]I[hSer][dDab]K; ester 14-C)
MIC [1]: 3 µg/mL (≈ 1.51 µM)
MIC range [2, 3]: 0.2 to 3 µg/mL
